Data taken from patent US8735414B2 (priority 2009, dated 2014).

Columns and labels:
[1] = test system: bicistronic HCV replicon (replicon RNA, GenBank Accession No. AJ242654); assay: HCV Replicon Assay; type: cell-based; settings: Hepatitis C virus, 72 h, read-out: Replicon IC50

Row | SMILES | IC50 [1] [nM] | melting point [°C]
1 | Cc1ccc2c(C#N)c(-c3ccc(S(=O)(=O)NC(CF)CF)cn3)n(C3CCCC3)c2c1 [compound 44, 6-(3-cyano-1-cyclopentyl-6-methyl-1H-indol-2-yl)-N-(1,3-difluoropropan-2-yl)pyridine-3-sulfonamide] | < 500 | 144 to 145
2 | Cc1cc2c(cc1F)c(C#N)c(-c1ccc(S(=O)(=O)N[C@@H](C)C(F)(F)F)cn1)n2-c1ncc(Cl)cn1 [compound 914, 6-[1-(5-chloropyrimidin-2-yl)-3-cyano-5-fluoro-6-methyl-1H-indol-2-yl]-N-[(2S)-1,1,1-trifluoropropan-2-yl]pyridine-3-sulfonamide] | < 500 | 213 to 218
3 | N#Cc1c(-c2ccc(S(=O)(=O)NC(CF)CF)cn2)n(C2CCOC2)c2ccc(F)cc12 (stereo not drawn) [compound 46, 6-[3-cyano-5-fluoro-1-(tetrahydrofuran-3-yl)-1H-indol-2-yl]-N-(1,3-difluoropropan-2-yl)pyridine-3-sulfonamide] | < 500 | 194 to 197
4 | CCc1cc2c(cc1F)c(C#N)c(-c1ccc(S(=O)(=O)NC(C)(C)C)cn1)n2-c1ccccn1 [compound 882, N-tert-butyl-6-[3-cyano-6-ethyl-5-fluoro-1-(pyridin-2-yl)-1H-indol-2-yl]pyridine-3-sulfonamide] | < 500 | 200 to 205
5 | Cc1cc2c(cc1F)c(C(N)=O)c(-c1ccc(S(=O)(=O)N[C@@H](C)C(F)(F)F)cn1)n2C1CCC1 [compound 737, 1-cyclobutyl-5-fluoro-6-methyl-2-(5-{[(2S)-1,1,1-trifluoropropan-2-yl]sulfamoyl}pyridin-2-yl)-1H-indole-3-carboxamide] | < 500 | 190 to 194
6 | C[C@@H](NS(=O)(=O)c1ccc(-c2c(C#N)c3ccc(C(F)F)cc3n2C2CCC2)nc1)C(F)(F)F [compound 334, 6-[3-cyano-1-cyclobutyl-6-(difluoromethyl)-1H-indol-2-yl]-N-[(2R)-1,1,1-trifluoropropan-2-yl]pyridine-3-sulfonamide] | < 500 | 200 to 206
7 | CC(C)n1c(-c2ccc(S(=O)(=O)NC(CF)CF)cn2)c(C#N)c2ccc(OC(F)F)cc21 [compound 36, 6-[3-cyano-6-(difluoromethoxy)-1-(propan-2-yl)-1H-indol-2-yl]-N-(1,3-difluoropropan-2-yl)pyridine-3-sulfonamide] | < 500 | 142 to 145
8 | Cc1ccc2c(C#N)c(-c3ccc(S(=O)(=O)NC(CF)CF)cn3)n(C(C)C)c2c1 [compound 80, 6-[3-cyano-6-methyl-1-(propan-2-yl)-1H-indol-2-yl]-N-(1,3-difluoropropan-2-yl)pyridine-3-sulfonamide] | < 500 | 188 to 195
9 | Cc1ccc2c(C#N)c(-c3ccc(S(=O)(=O)NC(CF)CF)cn3)n(-c3ccccn3)c2c1 [compound 248, 6-[3-cyano-6-methyl-1-(pyridin-2-yl)-1H-indol-2-yl]-N-(1,3-difluoropropan-2-yl)pyridine-3-sulfonamide] | < 500 | 159 to 162
10 | CCc1cc2c(cc1F)c(C#N)c(-c1ccc(S(=O)(=O)NC3(C(F)(F)F)CC3)cn1)n2C1CCC1 [compound 642, 6-(3-cyano-1-cyclobutyl-6-ethyl-5-fluoro-1H-indol-2-yl)-N-[1-(trifluoromethyl)cyclopropyl]pyridine-3-sulfonamide] | < 500 | 203 to 203.5
11 | N#Cc1c(-c2ncc(S(=O)(=O)NC(CF)CF)cn2)n(C2CCCCC2)c2ccc(Cl)cc12 [compound 463, 2-(5-chloro-3-cyano-1-cyclohexyl-1H-indol-2-yl)-N-(1,3-difluoropropan-2-yl)pyrimidine-5-sulfonamide] | < 500 | 251 to 253
12 | CCc1ccc2c(C#N)c(-c3ccc(S(=O)(=O)N[C@@H](C)C(F)(F)F)cn3)n(C3CCC3)c2c1 [compound 338, 6-(3-cyano-1-cyclobutyl-6-ethyl-1H-indol-2-yl)-N-[(2S)-1,1,1-trifluoropropan-2-yl]pyridine-3-sulfonamide] | < 500 | 198 to 199
13 | COc1ccc2c(C#N)c(-c3ncc(S(=O)(=O)N[C@@H](C)C(F)(F)F)cn3)n(C3CCC3)c2c1 [compound 405, 2-(3-cyano-1-cyclobutyl-6-methoxy-1H-indol-2-yl)-N-[(2S)-1,1,1-trifluoropropan-2-yl]pyrimidine-5-sulfonamide] | < 500 | 254 to 255
14 | C[C@@H](NS(=O)(=O)c1ccc(-c2c(C#N)c3cc(F)ccc3n2C2CCCCC2)nc1)C(F)(F)F [compound 261, 6-(3-cyano-1-cyclohexyl-5-fluoro-1H-indol-2-yl)-N-[(2R)-1,1,1-trifluoropropan-2-yl]pyridine-3-sulfonamide] | < 500 | 208 to 210
15 | CC(C)S(=O)(=O)Nc1ccc(-c2c(C#N)c3ccc(C4CC4)cc3n2C2CCC2)cn1 [compound 289, N-[5-(3-cyano-1-cyclobutyl-6-cyclopropyl-1H-indol-2-yl)pyridin-2-yl]propane-2-sulfonamide] | 500 to 2000 | 226 to 228
16 | CCc1cc2c(cc1F)c(C#N)c(-c1ccc(S(=O)(=O)N[C@@H](C)C(F)(F)F)cn1)n2-c1cccc(F)c1 [compound 1008, 6-[3-cyano-6-ethyl-5-fluoro-1-(3-fluorophenyl)-1H-indol-2-yl]-N-[(2S)-1,1,1-trifluoropropan-2-yl]pyridine-3-sulfonamide] | < 500 | 210 to 214
17 | Cc1cc2c(cc1F)c(C#N)c(-c1ccc(S(=O)(=O)NC3(C)CC3)cn1)n2C1CCCC1 [compound 645, 6-(3-cyano-1-cyclopentyl-5-fluoro-6-methyl-1H-indol-2-yl)-N-(1-methylcyclopropyl)pyridine-3-sulfonamide] | < 500 | 208 to 209
18 | Cc1cc2c(cc1F)c(C(N)=O)c(-c1ccc(S(=O)(=O)N[C@@H](C)C(F)(F)F)cn1)n2C1CCOCC1 [compound 769, 5-fluoro-6-methyl-1-(tetrahydro-2H-pyran-4-yl)-2-(5-{[(2S)-1,1,1-trifluoropropan-2-yl]sulfamoyl}pyridin-2-yl)-1H-indole-3-carboxamide] | < 500 | 261 to 264
19 | N#Cc1c(-c2ccc(S(=O)(=O)NC3(C(F)(F)F)CC3)cn2)n(C2CCC2)c2cc(OC(F)F)c(F)cc12 [compound 808, 6-[3-cyano-1-cyclobutyl-6-(difluoromethoxy)-5-fluoro-1H-indol-2-yl]-N-[1-(trifluoromethyl)cyclopropyl]pyridine-3-sulfonamide] | < 500 | 169 to 171
20 | N#Cc1c(-c2ncc(S(=O)(=O)NC(CF)CF)cn2)n(CC2CC2)c2ccc(Cl)cc12 [compound 221, 2-[5-chloro-3-cyano-1-(cyclopropylmethyl)-1H-indol-2-yl]-N-(1,3-difluoropropan-2-yl)pyrimidine-5-sulfonamide] | < 500 | 245 to 250
21 | Cc1cc2c(cc1F)c(C(N)=O)c(-c1ccc(S(=O)(=O)N[C@@H](C)C(F)(F)F)cn1)n2-c1ccc(F)cn1 [compound 876, 5-fluoro-1-(5-fluoropyridin-2-yl)-6-methyl-2-(5-{[(2S)-1,1,1-trifluoropropan-2-yl]sulfamoyl}pyridin-2-yl)-1H-indole-3-carboxamide] | < 500 | 224 to 228
